Experimental data published in PubChem BioAssay AID2060490 (Molecular Pharmacology Branch, DTP, NCI, 2025).

Test system: 885512-296-R-J2-PDC complex spheroid viability
Assay: Anticancer human tumor 885512-296-R-J2-PDC patient-derived breast carcinoma cell line growth inhibition [GQUAD]
Conditions: for IC50: curve of first compound; for viability, T/C: stronger effect = lower value
Description: DNA G-quadruplex Stabilizer Agents in Combinations in Complex Spheroids
A high-throughput screen of multi-cell type tumor spheroids was designed to identify active combinations of DNA G-quadruplex stabilizer agents and targeted small molecules. Complex spheroids include a stromal component modeled by human endothelial cells (HUVEC) and fibroblasts modeled by human mesenchymal stem cells (MSCs). The concentration ranges selected for each drug and investigational agent were based upon clinically achievable concentrations if the clinical Cmax of the agent was known.
Compounds. The drugs and investigational agents: pidnarulex (CX-5461; NSC782164), APTO-253 (NSC789042), BRACO-19 (NSC847499), peposertib (NSC802822), ceralasertib (NSC780249), elimusertib (NSC800525), camonsertib (NSC841442), AZD-1390 (NSC803789), olaparib (NSC753686), talazoparib (NSC767125), ART-558 (NSC835418), sotorasib (NSC818433), MRTX-1133 (NSC836407), SN-38 (NSC673596), topotecan (NSC609699), etoposide (NSC141540), doxorubicin (NSC123127), gemcitabine (NSC613327), 5-fluorouracil (NSC19893), paclitaxel (NSC125973), vemurafenib (NSC761431), panobinostat (NSC761190), R-306465 (JNJ-16241199; NSC773264), adavosertib (NSC754352), TP-3654 (NSC805149), carboplatin (NSC241240), KSQ-4279 (NSC840948), and staurosporine (NSC755774) were obtained from the National Cancer Institute (NCI) Developmental Therapeutics Program Chemical Repository (34). The FDA-approved anticancer drug set is available from the NCI Developmental Therapeutics Program. […] The stock solutions were prepared in dimethyl sulfoxide (DMSO, Sigma-Aldrich, St. Louis, MO, cat. D2650) at 800-fold the tested concentration and stored at -70 degrees C prior to their use. All drugs and investigational agents were tested over a range starting from a high concentration at or near the clinical Cmax and decreasing in half-log increments. If the clinical Cmax for an agent had not been determined, the highest concentration tested was 10 microM.
2.3 Cell Culture. All cells were maintained in an incubator at 37 degrees C and 5% CO2 with 95% humidity. The PDC lines were cultured according to standard operating procedures established by the NCI PDMR. All PDCs were thawed and cultured in Matrigel-coated flasks prepared with a working solution of 1X Ham's F-12 nutrient mix, without supplementation (Invitrogen, cat. 11765054), 100 U/mL penicillin-streptomycin (Invitrogen, cat. 15140122), and 2.5% Matrigel (Corning Inc., cat. 354248) for the first three passages. The 857933-349-R-J2-PDC line was cultured in 6C/Colon 1B media, which includes advanced DMEM/F-12 (Thermo Fisher Scientific, cat. 12634028), 10 mM HEPES (Thermo Fisher Scientific, cat. 15630080), 1X GlutaMAX supplement (Thermo Fisher Scientific, cat. 35050061), 0.1 mg/mL primocin (InvivoGen, cat. ant-pm-2), 10% defined fetal bovine serum, heat inactivated (HyClone Laboratories Inc., cat. SH30070.03HI), 50% L-WRN conditioned media (ATCC, cat. CRL-3276), 1.25 mM N-Acetyl-L-cysteine (Sigma-Aldrich, cat. A9165), 10 mM nicotinamide (Sigma-Aldrich, cat. N0636), 1X B-27 supplement (Thermo Fisher Scientific, cat. 17504044), 1X N-2 supplement (Thermo Fisher Scientific, cat. 17502048), 10 microM Y-27632 dihydrochloride (Tocris Bioscience, cat. 1254), and 50 ng/mL human EGF recombinant protein (Thermo Fisher Scientific, cat. PHG0311). The 485176-168-R4-J1-PDC line was cultured in Panc media, which includes all 6C/Colon 1B media components plus 100 ng/mL human FGF-10 (Thermo Fisher Scientific, cat. 100-26), 500 nM SB-431542 (Selleckchem, cat. S1067), and gastrin (Tocris, cat. 3006).
[…]
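Also: spheroids exposed to the compounds for one week.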
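For viability, T/C in this document: percent of tumor spheroid viability relative to DMSO vehicle control wells.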

IC50 (second compound 0.0316 µM): 198 nM | IC50 (second compound 0.1 µM): 53.1 nM | IC50 (second compound 0.316 µM): < 31.6 nM | IC50 (second compound 1 µM): < 31.6 nM | IC50 (second compound 3.16 µM): < 31.6 nM | IC50 (second compound 10 µM): < 31.6 nM
Compound: C=CCn1c(=O)c2cnc(Nc3ccc(N4CCN(C)CC4)cc3)nc2n1-c1cccc(C(C)(C)O)n1 + Cc1cnc(CNC(=O)c2c(=O)c3ccc(N4CCCN(C)CC4)nc3n3c2sc2ccccc23)cn1
viability, T/C (second compound 0.0316 µM, first compound 0.0316 µM): 91.2% | viability, T/C (second compound 0.0316 µM, first compound 0.1 µM): 80.3% | viability, T/C (second compound 0.0316 µM, first compound 0.316 µM): 29.2% | viability, T/C (second compound 0.0316 µM, first compound 1 µM): 7.28% | viability, T/C (second compound 0.0316 µM, first compound 3.16 µM): 2.83% | viability, T/C (second compound 0.0316 µM, first compound 10 µM): 2.53% | viability, T/C (second compound 0.1 µM, first compound 0.0316 µM): 58.3% | viability, T/C (second compound 0.1 µM, first compound 0.1 µM): 39.6% | viability, T/C (second compound 0.1 µM, first compound 0.316 µM): 19.6% | viability, T/C (second compound 0.1 µM, first compound 1 µM): 6.62% | viability, T/C (second compound 0.1 µM, first compound 3.16 µM): 2.73% | viability, T/C (second compound 0.1 µM, first compound 10 µM): 3.18% | viability, T/C (second compound 0.316 µM, first compound 0.0316 µM): 21.2% | viability, T/C (second compound 0.316 µM, first compound 0.1 µM): 16.4% | viability, T/C (second compound 0.316 µM, first compound 0.316 µM): 12% | viability, T/C (second compound 0.316 µM, first compound 1 µM): 7.07% | viability, T/C (second compound 0.316 µM, first compound 3.16 µM): 3% | viability, T/C (second compound 0.316 µM, first compound 10 µM): 3.66% | viability, T/C (second compound 1 µM, first compound 0.0316 µM): 22.6% | viability, T/C (second compound 1 µM, first compound 0.1 µM): 16.2% | viability, T/C (second compound 1 µM, first compound 0.316 µM): 10.8% | viability, T/C (second compound 1 µM, first compound 1 µM): 4.65% | viability, T/C (second compound 1 µM, first compound 3.16 µM): 2.76% | viability, T/C (second compound 1 µM, first compound 10 µM): 2.44% | viability, T/C (second compound 3.16 µM, first compound 0.0316 µM): 21.4% | viability, T/C (second compound 3.16 µM, first compound 0.1 µM): 12.4% | viability, T/C (second compound 3.16 µM, first compound 0.316 µM): 6.15% | viability, T/C (second compound 3.16 µM, first compound 1 µM): 0.28% | viability, T/C (second compound 3.16 µM, first compound 3.16 µM): 0.16% | viability, T/C (second compound 3.16 µM, first compound 10 µM): 0.17% | viability, T/C (second compound 10 µM, first compound 0.0316 µM): 0.12% | viability, T/C (second compound 10 µM, first compound 0.1 µM): 0.16% | viability, T/C (second compound 10 µM, first compound 0.316 µM): 0.16% | viability, T/C (second compound 10 µM, first compound 1 µM): 0.15% | viability, T/C (second compound 10 µM, first compound 3.16 µM): 0.81% | viability, T/C (second compound 10 µM, first compound 10 µM): 0.81%
